In US12410171B2, “Tropomyosin receptor kinase (TRK) degradation compounds and methods of use” (Cullgen (Shanghai), Inc., priority 2020, dated 2025) one finds percent degradation of TPM3-TRKA protein data, which are given here for 14 compounds.

Molecules are shown by their SMILES.

The assay deals with T1, TPM3-TRKA fusion protein (Homo sapiens, UniProt P04629).
T1 construct: The resulted chimeric proteins always retain the kinase domain of TRK proteins; TPM3 (fusion partner, N-terminal part of tropomyosin alpha-3, P06753); endogenous in cells; host or cells: KM12 colon cancer cells; the other entry of the earlier key: TPM3 (P06753, Tropomyosin alpha-3 chain)
T1 sequence (P04629 with tags, fused parts or gaps): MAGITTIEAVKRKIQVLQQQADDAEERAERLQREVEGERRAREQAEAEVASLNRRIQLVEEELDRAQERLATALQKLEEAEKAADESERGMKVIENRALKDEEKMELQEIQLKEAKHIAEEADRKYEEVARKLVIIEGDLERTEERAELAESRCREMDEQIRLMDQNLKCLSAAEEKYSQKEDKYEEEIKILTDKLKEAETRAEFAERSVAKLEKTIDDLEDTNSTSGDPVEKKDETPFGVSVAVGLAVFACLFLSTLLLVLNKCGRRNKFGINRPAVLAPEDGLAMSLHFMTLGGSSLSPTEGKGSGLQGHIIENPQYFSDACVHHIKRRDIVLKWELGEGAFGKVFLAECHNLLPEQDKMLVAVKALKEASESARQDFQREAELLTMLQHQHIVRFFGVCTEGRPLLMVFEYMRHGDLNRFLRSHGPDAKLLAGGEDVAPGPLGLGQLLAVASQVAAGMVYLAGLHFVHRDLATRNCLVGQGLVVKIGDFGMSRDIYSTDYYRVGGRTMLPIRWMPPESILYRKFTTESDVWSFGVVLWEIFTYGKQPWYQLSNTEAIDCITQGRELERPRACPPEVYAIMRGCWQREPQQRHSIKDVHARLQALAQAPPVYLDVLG
The experiment in a line: TPM3-TRKA fusion protein levels in KM12 cells (Western blot). In kind it is cell-based. To be noted: 16 h; TPM3-TRKA degradation in KM12 cells at 10 nM compound, category of percentage degradation; read-out: Degradation (at 10 nM). The protocol:
KM12 cells were treated with DMSO or indicated compounds at 100 nM for 16 hours.
KM12 cells were treated with DMSO or indicated compounds at 0. 1 nM, 1 nM or 10 nM for 16 hours.
KM12 cells were treated with DMSO or indicated compounds at various concentrations for 16 hours.
KM12 cells were treated with DMSO or indicated compounds at various concentrations for 4 hours.
KM12 cells (a cancer model comprising a colon cancer cell line) were treated with DMSO or indicated compounds at various concentrations for 4 hours.
KM12 cells were treated with heterobifunctional compounds or their corresponding control compounds at 10 nM or 100 nM for 16 hours.
KM12 cells were treated with heterobifunctional compounds or their corresponding control compounds at 0.4-30 nM for 8-16 hours. […] Cells were authenticated using the short tandem repeat (STR) assays. […] Stable cell lines were established by lentivirus transduction, selected and maintained in medium containing 1 μg/mL puromycin (Beyotime Biotechnology).
Cultured cells were washed with cold PBS once and lysed in cold RIPA buffer supplemented with protease inhibitors and phosphatase inhibitors (Beyotime Biotechnology). The solutions were then incubated at 4° C. for 30 minutes with gentle agitation to fully lyse cells. For tumor tissues, tumors were cut into small pieces, milled with cold RIPA buffer using a mechanical homogenizer and lysed for 1 hour at 4° C. Cell lysates were centrifuged at 13,000 rpm for 10 minutes at 4° C. and pellets were discarded. Total protein concentrations in the lysates were determined by BCA assays (Beyotime Biotechnology). Cell lysates were mixed with Laemmli loading buffer to 1× and heated at 99° C. for 5 min. Proteins were resolved on SDS-PAGE and visualized by chemiluminescence. Images were taken by a ChemiDoc MP Imaging system (Bio-Rad). Protein bands were quantitated using the software provided by Bio-Rad.

Regarding `O=C1CCC(N2C(=O)c3cccc(NCCOCCOCCOCCOCCC(=O)N4CCN(c5ccc(C(=O)Nc6n[nH]c7ccc(Cc8cc(F)cc(F)c8)cc67)c(NC6CCOCC6)c5)CC4)c3C2=O)C(=O)N1` (centres unmarked) [CPD-031, N-(5-(3,5-Difluorobenzyl)-1H-indazol-3-yl)-4-(4-(1-((2-(2,6-dioxopiperidin-3-yl)-1,3-dioxoisoindolin-4-yl)amino)-3,6,9,12-tetraoxapentadecan-15-oyl)piperazin-1˜yl)-2-((tetrahydro-2H-pyran-4-yl)amino)benzamide], the percent degradation of TPM3-TRKA protein at 0.01 µM was over 80%. Turning to `O=C1CCC(N2C(=O)c3cccc(NCCOCCOCCC(=O)N4CCN(c5ccc(C(=O)Nc6n[nH]c7ccc(Cc8cc(F)cc(F)c8)cc67)c(NC6CCOCC6)c5)CC4)c3C2=O)C(=O)N1` (stereo not drawn) [CPD-032, N—(S-(3,5-Difluorobenzyl)-1H-indazol-3-yl)-4-(4-(3-(2-(2-((2-(2,6-dioxopiperidin-3-yl)-1,3-dioxoisoindolin-4-yl)amino)ethoxy)ethoxy)propanoyl)piperazin-1-yl)-2-((tetrahydro-2H-pyran-4-yl)amino)benzamide], the percent degradation of TPM3-TRKA protein at 0.01 µM is over 80%.

With `Cc1ncsc1-c1ccc(CNC(=O)[C@@H]2C[C@@H](O)CN2C(=O)[C@@H](NC(=O)CCCCCCC(=O)N2CCN(c3ccc(C(=O)Nc4n[nH]c5ccc(Cc6cc(F)cc(F)c6)cc45)c(NC4CCOCC4)c3)CC2)C(C)(C)C)cc1` [CPD-033, (2S,4R)-1-((S)-2-(8-(4-(4-((5-(3,5-Difluorobenzyl)-1H-indazol-3-yl)carbamoyl)-3-((tetrahydro-2H-pyran-4-yl)amino)phenyl)piperazin-1-yl)-8-oxooctanamido)-3,3-dimethylbutanoyl)-4-hydroxy-N-(4-(4-methylthiazol-5-yl)benzyl)pyrrolidine-2-carboxamide], the percent degradation of TPM3-TRKA protein at 0.01 µM was over 80%. On to `Cc1ncsc1-c1ccc(CNC(=O)[C@@H]2C[C@@H](O)CN2C(=O)[C@@H](NC(=O)CCCCCCCCC(=O)N2CCN(c3ccc(C(=O)Nc4n[nH]c5ccc(Cc6cc(F)cc(F)c6)cc45)c(NC4CCOCC4)c3)CC2)C(C)(C)C)cc1` [CPD-034, (28,4R)-1-((S)-2-(10-(4-(4-((5-(3,5-Difluorobenzyl)-1H-indazol-3-yl)carbamoyl)-3-((tetrahydro-2H-pyran-4-yl)amino)phenyl)piperazin-1-yl)-10-oxodecanamido)-3,3-dimethylbutanoyl)-4-hydroxy-N-(4-(4-methylthiazol-5-yl)benzyl)pyrrolidine-2-carboxamide], for which the percent degradation of TPM3-TRKA protein at 0.01 µM is under 50%. On to `Cc1ncsc1-c1ccc(CNC(=O)[C@@H]2C[C@@H](O)CN2C(=O)[C@@H](NC(=O)CCCCCCCCCC(=O)N2CCN(c3ccc(C(=O)Nc4n[nH]c5ccc(Cc6cc(F)cc(F)c6)cc45)c(NC4CCOCC4)c3)CC2)C(C)(C)C)cc1` [CPD-035, (25,4R)-1-((S)-2-(11-(4-(4-((5-(3,5-Difluorobenzyl)-1H-indazol-3-yl)carbamoyl)-3-((tetrahydro-2H-pyran-4-yl)amino)phenyl)piperazin-1-yl)-11-oxoundecanamido)-3,3-dimethylbutanoyl)-4-hydroxy-N-(4-(4-methylthiazol-5-yl)benzyl)pyrrolidine-2-carboxamide], for which the percent degradation of TPM3-TRKA protein at 0.01 µM was under 50%. For `Cc1ncsc1-c1ccc(CNC(=O)[C@@H]2C[C@@H](O)CN2C(=O)[C@@H](NC(=O)CCCCCCCC(=O)N2CCN(c3ccc(C(=O)Nc4n[nH]c5ccc(Cc6cc(F)cc(F)c6)cc45)c(NC4CCOCC4)c3)CC2)C(C)(C)C)cc1` [CPD-037, (25,4R)-1-((S)-2-(9-(4-(4-((5-(3,5-Difluorobenzyl)-1H-indazol-3-yl)carbamoyl)-3-((tetrahydro-2H-pyran-4-yl)amino)phenyl)piperazin-1-yl)-9-oxononanamido)-3,3-dimethylbutanoyl)-4-hydroxy-N-(4-(4-methylthiazol-S-yl)benzyl)pyrrolidine-2-carboxamide], the percent degradation of TPM3-TRKA protein at 0.01 µM was in the range of 50 to 80%. The value for `Cc1ncsc1-c1ccc(CNC(=O)[C@@H]2C[C@@H](O)CN2C(=O)[C@@H](NC(=O)CCOCCOCCOCCC(=O)N2CCN(c3ccc(C(=O)Nc4n[nH]c5ccc(Cc6cc(F)cc(F)c6)cc45)c(NC4CCOCC4)c3)CC2)C(C)(C)C)cc1` [CPD-039, (28,4R)-1-((S)-2-(tert-butyl)-16-(4-(4-((5-(3,5-Difluorobenzyl)-1H-indazol-3-yl)carbamoyl)-3-((tetrahydro-2H-pyran-4-yl)amino)phenyl)piperazin-1-yl)-4,16-dioxo-7,10,13-trioxa-3-azahexadecanoyl)-4-hydroxy-N-(4-(4-methylthiazol-5-yl)benzyl)pyrrolidine-2-carboxamide] was under 50%; that for `Cc1ncsc1-c1ccc(CNC(=O)[C@@H]2C[C@@H](O)CN2C(=O)[C@@H](NC(=O)CCOCCOCCOCCOCCC(=O)N2CCN(c3ccc(C(=O)Nc4n[nH]c5ccc(Cc6cc(F)cc(F)c6)cc45)c(NC4CCOCC4)c3)CC2)C(C)(C)C)cc1` [CPD-041, (2S,4R)-1-((S)-2-(tert-butyl)-19-(4-(4-((5-(3,5-Difluorobenzyl)-1H-indazol-3-yl)carbamoyl)-3-((tetrahydro-2H-pyran-4-yl)amino)phenyl)piperazin-1-yl)-4,19-dioxo-7,10,13,16-tetraoxa-3-azanonadecanoyl)-4-hydroxy-N-(4-(4-methylthiazol-5-yl)benzyl)pyrrolidine-2-carboxamide] was under 50%; that for `Cc1ncsc1-c1ccc(CNC(=O)[C@@H]2C[C@@H](O)CN2C(=O)[C@@H](NC(=O)CCCCC(=O)N2CCN(c3ccc(C(=O)Nc4n[nH]c5ccc(Cc6cc(F)cc(F)c6)cc45)c(NC4CCOCC4)c3)CC2)C(C)(C)C)cc1` [CPD-044] was 50 to 80%. On to `Cc1ncsc1-c1ccc(CNC(=O)[C@@H]2C[C@@H](O)CN2C(=O)[C@@H](NC(=O)COCC(=O)N2CCN(c3ccc(C(=O)Nc4n[nH]c5ccc(Cc6cc(F)cc(F)c6)cc45)c(NC4CCOCC4)c3)CC2)C(C)(C)C)cc1` [CPD-045, (28,4R)-1-((S)-2-(2-(2-(4-(4-((5-(3,5˜Difluorobenzyl)-1H-indazol-3-yl)carbamoyl)-3-((tetrahydro-2H-pyran-4-yl)amino)phenyl)piperazin-1-yl)-2-oxoethoxy)acetamido)-3,3-dimethylbutanoyl)-4-hydroxy-N-(4-(4-methylthiazol-5-yl)benzyl)pyrrolidine-2-carboxamide], for which the percent degradation of TPM3-TRKA protein at 0.01 µM lay within 50 to 80%. Consider `Cc1ncsc1-c1ccc(CNC(=O)[C@@H]2C[C@@H](O)CN2C(=O)[C@@H](NC(=O)CCC(=O)N2CCN(c3ccc(C(=O)Nc4n[nH]c5ccc(Cc6cc(F)cc(F)c6)cc45)c(NC4CCOCC4)c3)CC2)C(C)(C)C)cc1` [CPD-046, (25,4R)-1-((S)-2-(4-(4-(4-((S-(3,5-Difluorobenzyl)-1H-indazol-3-yl)carbamoyl)-3,3-((tetrahydro-2H-pyran-4-yl)amino)phenyl)piperazin-1-yl)-4-oxobutanamido)-3,3-dimethylbutanoyl)-4-hydroxy-N-(4-(4-methylthiazol-S-yl)benzyl)pyrrolidine-2-carboxamide], for which the percent degradation of TPM3-TRKA protein at 0.01 µM lay within 50 to 80%.

On to `Cc1ncsc1-c1ccc(CNC(=O)[C@@H]2C[C@@H](O)CN2C(=O)[C@@H](NC(=O)CCCCCC(=O)N2CCN(c3ccc(C(=O)Nc4n[nH]c5ccc(Cc6cc(F)cc(F)c6)cc45)c(NC4CCOCC4)c3)CC2)C(C)(C)C)cc1` [CPD-047, (28,4R)-1-((S)-2-(7-(4-(4-((5-(3,5-Difluorobenzyl)-1H-indazol-3-yl)carbamoyl)-3-((tetrahydro-2H-pyran-4-yl)amino)phenyl)piperazin-1-yl)-7-oxoheptanamido)-3,3-dimethylbutanoyl)-4-hydroxy-N-(4-(4-methylthiazol-5-yl)benzyl)pyrrolidine-2-carboxamide], for which the percent degradation of TPM3-TRKA protein at 0.01 µM is over 80%.

`Cc1ncsc1-c1ccc(CNC(=O)[C@@H]2C[C@@H](O)CN2C(=O)[C@@H](NC(=O)CCOCCC(=O)N2CCN(c3ccc(C(=O)Nc4n[nH]c5ccc(Cc6cc(F)cc(F)c6)cc45)c(NC4CCOCC4)c3)CC2)C(C)(C)C)cc1` [CPD-048, (28,4R)-1-((S)-2-(3-(3-(4-(4-((5-(3,5-Difluorobenzyl)-1H-indazol-3-yl)carbamoyl)-3-((tetrahydro-2H-pyran-4-yl)amino)phenyl)piperazin-1-yl)-3-oxopropoxy)propanamido)-3,3-dimethylbutanoyl)-4-hydroxy-N-(4-(4-methylthiazol-5-yl)benzyl)pyrrolidine-2-carboxamide]: the percent degradation of TPM3-TRKA protein at 0.01 µM was under 50%. The value for `O=C1CCC(N2C(=O)c3cccc(NCCCCCCC(=O)N4CCN(c5ccc(C(=O)Nc6n[nH]c7ccc(Cc8cc(F)cc(F)c8)cc67)c(NC6CCOCC6)c5)CC4)c3C2=O)C(=O)N1` (stereo not drawn) [CPD-049, N—(S-(3,5-Difluorobenzyl)-1H-indazol-3-yl)-4-(4-(7-((2-(2,6-dioxopiperidin-3-yl)-1,3-dioxoisoindolin-4-yl)amino)heptanoyl)piperazin-1-yl)-2-((tetrahydro-2H-pyran-4-yl)amino)benzamide] was over 80%.
